# Experimental data from patent US6833373B1, “Method of using an integrin antagonist and one or more antineoplastic agents as a combination therapy in the treatment of neoplasia” (G.D. Searle & Co., priority 1998, dated 2004).
# Key:
# human U251 glioblastoma = experiment: U251 glioblastoma model; type: in vivo, SCID mice; details: for tumor growth (mean tumor volume with time): compound I7 10 mg/kg BID PO day 14-44, BCNU 12 mg/kg once a day on days 14, 18 and 22
# Experimental: compound I7 was evaluated in the human U251 glioblastoma model. The tumors were implanted onto the flanks of SCID mice and the mean tumor volume with time was calculated. […] These clinically relevant measurements of antitumor efficacy establish the antitumor efficacy of compound I7, especially when combined with standard of care chemotherapeutic agents.
# lung tumors = experiment: Implanted tumor cells, lung tumors in mice, compound I7 with or without cisplatin; type: in vivo; details: compared to the control groups; lung tumors greater than 2,000 mm^3
# Text: In an additional experiment, tumor cells were implanted into mice; lung tumors of volumes greater than 2,000 mm^3 were developed. The mice were then separated into four groups, including a control group and three treatment groups: compound I7 alone; compound I7 with cisplatin (a cytotoxic drug); or cisplatin alone. Compared to the control groups, the mice treated with combination compound I7/cisplatin therapy experienced more than an 80 percent reduction in tumor size. In comparison, the group receiving cisplatin alone experienced 50 percent reductions in tumor size and the compound I7 group experienced 20-30 percent reductions. These studies indicate that compound I7 has prominent anti-tumor activity.
# [1] = test system: Cancer cells implanted subcutaneously; details: large-volume tumors (>1,500 mm^3); dose dependent; cited from earlier work
# [2] = test system: A2780 human ovarian carcinoma; experiment: A2780 mouse model; type: in vivo, SCID mice; details: compound I7 10 mg/kg BID PO; cisplatin 10 mg/kg ip once on day 20
# Text: compound I7 prevents the growth of human ovarian carcinoma in SCID mice. […] Survival studies are now underway to characterize the survival benefit of combination therapy in this model.
# [3] = test system: Rice 500 rat Leydig testicular tumor; experiment: Rice 500 rat Leydig testicular tumor model; type: in vivo, SCID mice; details: for survival compared to vehicle treated controls: single agents, p<0.05
# Experimental: The Rice 500 rat Leydig testicular tumor grows very quickly when implanted into the flank of SCID mice. […] Tumor growth was reduced by about 50% at the […] dose in this aggressive model. […] Similar to the results seen in the M21 tumor model, compound I7 increased the effects of cisplatin in the Leydig tumor model. […] In a similar experiment, the effects of compound I7, cisplatin and the combination were evaluated for potentiation of overall survival in the Leydig tumor mice. Survival was increased by either compound I7 or cisplatin alone when compared to vehicle treated controls (p<0.05). More importantly, the combination of the two agents almost doubled overall survival (from 17 to 29 days) (p<0.0l combination vs. cisplatin, p<0.001 combination vs. control). Thus, the ability of compound I7 to work alone or in combination therapy to prevent tumor growth clearly correlates with enhanced survival.
# M21 human melanoma cells = experiment: M21 human melanoma model; type: in vivo, SCID mice
# Experimental: In the M21 model, M21 human melanoma cells implanted subcutaneously into SCID mice developed tumors which grew to approximately 400 mm^3 within 30 days. […] Cisplatin was administered once by ip injection (10 mg/kg) on day 14. […] The results of this dose sequencing experiment establish the efficacy of compound I7 in combination therapy with cisplatin when administered before, concurrent with, or after cisplatin dosing.
# [4] = test system: Lewis Lung carcinoma (LLC); experiment: Lewis Lung carcinoma (LLC) model; details: for growth of the LLC tumor (primary tumor mass): compound I7 1 and 10 mg/kg BID PO from day 1, cisplatin single ip dose 10 mg/kg on day 5; for median survival time: compound I7 at 10 mg/kg
# Experimental: Tumor cells for implantation were taken from cells either grown in tissue culture (Leydig, M21) or serially passaged as tumors in mice and prepared as tumor brei (LLC). […] Tumor volumes were measured at intervals over the course of the experiments. Tumors were measured with a vernier caliper and volumes were determined using the formula for the volume of a cylinder: tumor volume=width^2×length×0.52. […] On the final day of the experiment, tumors were dissected free and weighed. The data are expressed as the mean +/− SEM. Student's and Mann-Whitney tests were used to assess differences between means or medians using the InStat software package.
# [5] = test system: 435/GFP HAL-1 (MDA-MB-435 breast carcinoma) cells; experiment: Metastasis model, 435/GFP HAL-1 orthotopic implantation; type: in vivo, SCID mice; details: for reduction in lung metastatic burden: eight weeks
# Text: Accurate quantitation of early-stage metastasis in animal models is typically hampered by the lack of sensitive and convenient assays to detect low numbers of tumor cells in a background of normal tissue. Quantitation of late-stage metastasis by counting of visible foci or comparison of organ weights requires substantial tumor burden which can take 3-4 months to develop in conventional models of breast cancer, and generally cannot detect subtle differences. […] The GFP-transfected cells are easily detected by flow cytometry, and fixation of the cells or the addition of antibodies or exogenous substrates is not required. A highly aggressive clone was isolated from the lung of a SCID mouse implanted in the mammary fat pad with several GFP-expressing clones. […] Eight weeks later, lungs were removed and weighed.
# [6] = test system: angiogenesis induced by bFGF or VEGF; experiment: Corneal micropocket assay; type: in vivo, female C57BL6 mice; details: BID
# Text: In this model, an intrastromal pocket is surgically created in the normally avascular cornea of female C57BL6 mice 1 mm distance from the corneal-scleral junction. A slow release hydron polymer pellet containing an angiogenic growth factor (bFGF or VEGF) is inserted into the corneal pocket. The pocket is self sealing and antibiotic ointment is placed in the eye.
# [7] = 15 mg/kg/day, biliary cirrhosis trials; cited from earlier work
smiles,measurement,setting,value
"O=NN(CCCl)C(=O)NCCCl [BCNU, carmustine]",tumor growth (mean tumor volume with time),human U251 glioblastoma,"regression of the tumors to the limit of detectability, but the tumors grew back"
same,duration of the response,human U251 glioblastoma; p<0.01,5 days
"O=C(O)C[C@@H](NC(=O)CNC(=O)c1cc(O)cc(NC2=NCC(O)CN2)c1)c1cc(Cl)cc(Br)c1O (stereo partly drawn) [compound I7, (3R)-N-[3-hydroxy-5-[(1,4,5,6-tetrahydro-5-hydroxy-2-pyrimidinyl)amino]benzoyl]glycyl-3-(3-bromo-5-chloro-2-hydroxyphenyl)-b-alanine]",reduction in tumor size,lung tumors,20-30%
same,reduced tumor growth,[1],≤ 85%
same,tumor growth,[2],equally effective as cisplatin
same,tumor growth reduced,[3]; 2 mg/ml dose in drinking water,about 50%
same,inhibition of tumor growth,"[3]; compound I7 10 or 100 mg/kg BID PO from day 5, monotherapy or with cisplatin 10 mg/kg ip once day 5, p<0.01 vs control",Dose-related inhibition of tumor growth
same,tumor growth,[3]; in the drinking water at 0.02 to 2 mg/ml,inhibited tumor growth dose-dependently
same,survival compared to vehicle treated controls,[3],increased
same,time to tumor volume >200 mm^3,M21 human melanoma cells; 10 mg/kg,27 days
same,growth of M21 tumors,"M21 human melanoma cells; oral BID, at time of tumor implantation or beginning up to 21 days after",dose-dependently retarded the growth
same,growth of the LLC tumor (primary tumor mass),[4],did not affect the growth
same,median survival time,[4]; cisplatin 10 mg/kg ip day 5,33 days
same,reduction in lung metastatic burden,[5]; 10 mg/kg BID orally,55%
same,reduction in lung metastatic burden,[5]; 30 mg/kg BID orally,69%
same,spontaneous metastasis of 435 breast carcinoma cells to the lungs,"[5]; 1, 10 and 30 mg/kg BID orally, visual counting or flow cytometry",dose-dependently reduced
same,growth of the primary tumor mass,"[5]; mouse, in vivo",did not delay the growth
same,histological examination of lung sections,"[5]; mouse, in vivo",dramatic reduction in the number of large macroscopic metastases and an increase in the presence of microscopic foci of metastases
same,tumor growth (mean tumor volume with time),human U251 glioblastoma,little inhibition of tumor growth
same,angiogenesis induced by either bFGF or VEGF,[6],inhibited angiogenesis
same,inhibition of the angiogenic response,[6]; maximal inhibitory activity at 10 mg/kg BID orally,up to 42%
"N.N.[Cl][Pt][Cl] [cisplatin, reference compound]",reduction in tumor size,lung tumors,50%
same,tumor growth,[2],decreasing tumor growth
same,survival compared to vehicle treated controls,[3],increased
same,time to develop a tumor >500 mm^3,"[4]; cisplatin 10 mg/kg ip day 5, compound I7 10 mg/kg",22.4 days
same,growth of the LLC tumor (primary tumor mass),[4],significantly retarded the growth
same,median survival time,[4]; cisplatin 10 mg/kg ip day 5,33 days
"C[C@H](CCC(=O)O)[C@H]1CC[C@H]2[C@@H]3[C@@H](O)C[C@@H]4C[C@H](O)CC[C@]4(C)[C@H]3CC[C@]12C [URSO, Ursodeoxycholate]",tolerability,[7],extremely well tolerated and without toxicity
